The EC50 is the concentration at which the effect is half-maximal. A low value points to an effect from little substance.

The results in this text go back to ChEMBL document CHEMBL5725801, “Fused heterocyclic compounds as CaM kinase inhibitors” (2018).

The nature of the assay: CaMKII Cell-Based Activity: CaMKII activity in neonatal rat ventricular myocytes (NRVM) was measured by monitoring the phosphorylation level of phospholamban using high-content imaging. NRVMs were plated in a clear bottom 384-well plate in medium supplemented with 10% fetal bovine serum (FBS) and incubated at 37° C., 5% CO2 overnight. The medium was changed to a serum-free medium and compounds were dosed to the cells. The cells were incubated at 37° C., 5% CO2 for 4 hours and were then treated with 100 nM ATX-II (Alomone Labs) to activate CaMKII. 10 minutes after the addition of ATX-II, the cells were fixed with 4% formaldehyde followed by permeabilization with 0.1% triton X100. The fixed cells were stained with an anti-phospho-phospholamban primary antibody (Santa Cruz Biotechnology) and an Alexa488-labeled anti-rabbit IgG secondary antibody (Life Technologies Corporation) as well as Hoechst 33342 (Life Technologies Corporation). The cells were imaged using an ArrayScan VTI (Cellomics) and analyzed for cells containing a positive fluorescent signal at 485 nm, reported as % responder. The % responders were plotted against the compound concentration to determine the compounds EC50.
`CCN(CC)[C@@H](C)CNC(=O)c1cc(-c2cnn3ccc(-c4cccs4)nc23)nc(N2CCC(O)CC2)c1` yielded an EC50 of 46.6 nM.

Molecule `CCN(CC)[C@@H](C)CNC(=O)c1cc(NC2COC2)nc(-c2cnn3ccc(-c4cccs4)nc23)c1` displayed an EC50 of 7290 nM. Molecule `CCN[C@@H](C)CNC(=O)c1cc(-c2cnn3ccc(-c4cccs4)nc23)nc(N2CC(O)C2)c1` displayed an EC50 of 604 nM. Consider `CCN(CC)[C@@H](C)CNC(=O)c1cc(-c2cnn3ccc(-c4cccs4)nc23)nc(N2CC(C)(OC)C2)c1`, for which the midpoint of the response, the EC50, lay at 8.28 nM. This EC50 is about 73-fold lower than that of the molecule before. Turning to `CCC(=O)Nc1cc(C(=O)NC[C@H](C)N(CC)CC)cc(-c2cnn3ccc(-c4cccs4)nc23)n1`, the EC50 was 48.8 nM. Compared with the last molecule, the EC50 is about 5.9-fold higher.

Turning to `CCN(CC)[C@@H](C)CNC(=O)c1cc(NS(=O)(=O)C(C)C)nc(-c2cnn3ccc(-c4cccs4)nc23)c1`, a half-maximal effect (EC50) was put at 115 nM. For the molecule `CCN(CC)[C@@H](C)CNC(=O)c1cc(NCCN(C)C)nc(-c2cnn3ccc(-c4ccccc4)nc23)c1`, a half-maximal response (EC50) required 31.9 nM. Molecule `CCN(CC)[C@@H](C)CNC(=O)c1cc(-c2cnn3ccc(-c4cccs4)nc23)nc(N2CC(O)(CC)C2)c1` came in with an EC50 of 24.7 nM. The molecule `CCN(CC)[C@@H](C)CNC(=O)c1cc(-c2cnn3ccc(-c4cccs4)nc23)nc(N2CC(NC(=O)N(C)C)C2)c1` came in with an EC50 of 22.6 nM.

Turning to `CCN(CC)[C@@H](C)CNC(=O)c1cc(NC2CCOCC2)nc(-c2cnn3ccc(-c4cccs4)nc23)c1`, the concentration giving a half-maximal response (EC50) amounted to 24.2 nM.

`CCN(CC)[C@@H](C)CNC(=O)c1cc(-c2cnn3ccc(-c4cccs4)nc23)nc(N2CC(NS(C)(=O)=O)C2)c1` registered an EC50 of 26.4 nM.

In turn, `CCN(CC)[C@@H](C)CNC(=O)c1cc(NCC2(N3CCCC3)COC2)nc(-c2cnn3ccc(-c4cccs4)nc23)c1` displayed an EC50 of 232 nM. Compared with the last molecule, the EC50 is about 8.8-fold higher. The molecule `CCOC(=O)Nc1cc(C(=O)NC[C@H](C)N(CC)CC)cc(-c2cnn3ccc(-c4cccs4)nc23)n1` came in with a concentration giving a half-maximal response (EC50) of 143 nM. Under `CCN[C@@H](C)CNC(=O)c1cc(-c2cnn3ccc(-c4cccs4)nc23)nc(N2CC(OC)C2)c1` stands 90.5 nM; under `CCN(CC)[C@@H](C)CNC(=O)c1cc(-c2cnn3ccc(-c4cccs4)nc23)nc(N2CC(F)(F)C(F)(F)C2)c1`, 61.5 nM; under `CCN(CC)[C@@H](C)CNC(=O)c1cc(-c2cnn3ccc(-c4cccs4)nc23)nc(N2CCC(O)C(F)(F)C2)c1` (stereo partly drawn), 65.5 nM. On to `CCN(CC)[C@@H](C)CNC(=O)c1cc(-c2cnn3ccc(-c4cccs4)nc23)nc(N2CCN(C(C)=O)CC2)c1`, for which the concentration giving a half-maximal response (EC50) worked out at 43.6 nM.

For `CCN(CC)[C@@H](C)CNC(=O)c1cc(-c2cnn3ccc(-c4cccs4)nc23)nc(N2CC(NS(=O)(=O)Cc3ccon3)C2)c1`, the midpoint of the response, the EC50, lay at 27 nM. On to `CCN(CC)[C@@H](C)CNC(=O)c1cc(NCC2(C)COC2)nc(-c2cnn3ccc(-c4cccs4)nc23)c1`, for which a half-maximal response (EC50) required 23.4 nM. This EC50 and that of the molecule before are within 1.5-fold of each other. In turn, `CCN(CC)[C@@H](C)CNC(=O)c1cc(-c2cnn3ccc(-c4ccns4)nc23)nc(N2CC(OC)C2)c1` had an EC50 of 13.9 nM. Compared with the last molecule, the EC50 is about 1.7-fold lower. `CCN(CC)[C@@H](C)CNC(=O)c1cc(-c2cnn3ccc(-c4cccs4)nc23)nc(N2CC(CO)C2)c1` had an EC50 of 21.6 nM.

Take `CCN(CC)[C@@H](C)CNC(=O)c1cc(-c2cnn3ccc(-c4cccs4)nc23)nc(N2CCC(C)(O)CC2)c1`: the EC50 is 46 nM. Molecule `CCN(CC)[C@@H](C)CNC(=O)c1cc(-c2cnn3ccc(-c4cccs4)nc23)nc(N2CC(NC(=O)C3CC3)C2)c1` registered an EC50 of 3.75 nM.

`CCN(CC)[C@@H](C)CNC(=O)c1cc(-c2cnn3ccc(-c4ccsc4)nc23)nc(N2CC(OC)C2)c1` yielded an EC50 of 14.9 nM. For `CCN(CC)[C@@H](C)CNC(=O)c1cc(-c2cnn3ccc(-c4ccccc4)nc23)nc(N2CC(OC)C2)c1`, the EC50 came out at 16.9 nM. On to `CCN(CC)[C@@H](C)CNC(=O)c1cc(-c2cnn3ccc(-c4cccs4)nc23)nc(N2CC(NS(=O)(=O)CC)C2)c1`, for which the EC50 amounted to 25.7 nM. The molecule `CCN(CC)[C@@H](C)CNC(=O)c1cc(NS(=O)(=O)C2CC2)nc(-c2cnn3ccc(-c4cccs4)nc23)c1` yielded an EC50 of 95.9 nM. As to `CCN(CC)[C@@H](C)CNC(=O)c1cc(-c2cnn3ccc(-c4cccs4)nc23)nc(N(C)S(C)(=O)=O)c1`, the midpoint of the response, the EC50, lay at 9.6 nM.

In turn, `CCN(CC)[C@@H](C)CNC(=O)c1cc(N[C@H]2CCOC2)nc(-c2cnn3ccc(-c4cccs4)nc23)c1` gave an EC50 of 29.9 nM.

`CCN(CC)[C@@H](C)CNC(=O)c1cc(NCCN2CC(F)(F)C2)nc(-c2cnn3ccc(-c4cccs4)nc23)c1` yielded an EC50 of 45.6 nM. `C[C@H](N)CNC(=O)c1cc(-c2cnn3ccc(-c4cccs4)nc23)nc(N2CC(O)C2)c1` gave an EC50 of 2480 nM. Next, `CCN(CC)[C@@H](C)CNC(=O)c1cc(-c2cnn3ccc(-c4cccs4)nc23)nc(N2CC(NS(=O)(=O)C(C)C)C2)c1`: 31.5 nM.

For the molecule `CCN(CC)[C@@H](C)CNC(=O)c1cc(NCCCO)nc(-c2cnn3ccc(-c4cccs4)nc23)c1`, the concentration giving a half-maximal response (EC50) worked out at 49.4 nM. Under `CCN(CC)[C@@H](C)CNC(=O)c1cc(NC(=O)C2CC2)nc(-c2cnn3ccc(-c4cccs4)nc23)c1` stands 27.4 nM; under `CCN(CC)[C@@H](C)CNC(=O)c1cc(NCCN2CCOCC2)nc(-c2cnn3ccc(-c4cccs4)nc23)c1`, 27.5 nM.

For the molecule `CCN[C@@H](C)CNC(=O)c1cc(-c2cnn3ccc(-c4ccccc4)nc23)nc(N2CC(OC)C2)c1`, a half-maximal response (EC50) required 145 nM. Turning to `CCN(CC)[C@@H](C)CNC(=O)c1cc(NC(=O)OC(C)C)nc(-c2cnn3ccc(-c4cccs4)nc23)c1`, a half-maximal response (EC50) required 39.8 nM. Compared with the last molecule, the EC50 is about 3.6-fold lower. Under `CCN(CC)[C@@H](C)CNC(=O)c1cc(NS(=O)(=O)CC)nc(-c2cnn3ccc(-c4cccs4)nc23)c1` stands 126 nM. Under `CCN(CC)[C@@H](C)CNC(=O)c1cc(NCc2cc[nH]n2)nc(-c2cnn3ccc(-c4cccs4)nc23)c1` stands 54.3 nM. As for `CCN(CC)[C@@H](C)CNC(=O)c1cc(N[C@H](C)CO)nc(-c2cnn3ccc(-c4cccs4)nc23)c1`, the midpoint of the response, the EC50, lay at 75.2 nM. On to `CCN(CC)[C@@H](C)CNC(=O)c1cc(-c2cnn3ccc(-c4cccs4)nc23)nc(N2CC(NC)C2)c1`, for which the midpoint of the response, the EC50, lay at 69.9 nM.

The molecule `CCN(CC)[C@@H](C)CNC(=O)c1cc(N[C@@H](C)CO)nc(-c2cnn3ccc(-c4cccs4)nc23)c1` showed an EC50 of 34 nM.

`CCN(CC)[C@@H](C)CNC(=O)c1cc(-c2cnn3ccc(-c4cccs4)nc23)nc(N2CC(C(N)=O)C2)c1` had an EC50 of 71.4 nM. This EC50 lies about 2.1-fold higher than the previous one.

The molecule `COC1CN(c2cc(C(=O)NCC34CCCN3CCC4)cc(-c3cnn4ccc(-c5ccccc5)nc34)n2)C1` yielded an EC50 of 69.6 nM. Consider `CCN(CC)[C@@H](C)CNC(=O)c1cc(NC2CC2)nc(-c2cnn3ccc(-c4cccs4)nc23)c1`, for which the response was half-maximal at 30.6 nM (EC50).

Turning to `CCN(CC)[C@@H](C)CNC(=O)c1cc(NCC2COC2)nc(-c2cnn3ccc(-c4cccs4)nc23)c1`, it took 13600 nM to reach a half-maximal effect (EC50). For the molecule `CCN(CC)[C@@H](C)CNC(=O)c1cc(NCCC(C)(C)O)nc(-c2cnn3ccc(-c4cccs4)nc23)c1`, the response was half-maximal at 22.3 nM (EC50). Compared with the last molecule, the EC50 is about 610-fold lower. Next, `COC1CN(c2cc(C(=O)NC[C@H](C)N)cc(-c3cnn4ccc(-c5cccs5)nc34)n2)C1`: 139 nM; `CCN(CC)[C@@H](C)CNC(=O)c1cc(NCCN(C)C)nc(-c2cnn3ccc(-c4cccs4)nc23)c1`: 59 nM; `CCN(CC)[C@@H](C)CNC(=O)c1cc(-c2cnn3ccc(-c4cccs4)nc23)nc(N2CC(NS(=O)(=O)C3CC3)C2)c1`: 28.1 nM. Molecule `CCN(CC)[C@@H](C)CNC(=O)c1cc(-c2cnn3ccc(-c4cccs4)nc23)nc(N2CCNCC2)c1` gave an EC50 of 67 nM.

On to `CCN(CC)[C@@H](C)CNC(=O)c1cc(-c2cnn3ccc(-c4cccs4)nc23)nc(N2CCNC2=O)c1`, for which a half-maximal effect (EC50) was put at 150 nM. On to `CCN(CC)[C@@H](C)CNC(=O)c1cc(NS(C)(=O)=O)nc(-c2cnn3ccc(-c4cccs4)nc23)c1`, for which the EC50 amounted to 107 nM. Regarding `CCN(CC)[C@@H](C)CNC(=O)c1cc(-c2cnn3ccc(-c4cccs4)nc23)nc(N2CC(O)(C3CC3)C2)c1`, the EC50 stood at 56.7 nM. Under `CCN(CC)[C@@H](C)CNC(=O)c1cc(NCCCOC)nc(-c2cnn3ccc(-c4cccs4)nc23)c1` stands 31.9 nM. Molecule `CCN(CC)[C@@H](C)CNC(=O)c1cc(Nc2cn[nH]c2)nc(-c2cnn3ccc(-c4cccs4)nc23)c1` displayed an EC50 of 9.87 nM. Under `CCN(CC)[C@@H](C)CNC(=O)c1cc(-c2cnn3ccc(-c4cccs4)nc23)nc(N2CC(O)(C(F)(F)F)C2)c1` stands 26.5 nM; under `CCN(CC)[C@@H](C)CNC(=O)c1cc(NC[C@@H](C)O)nc(-c2cnn3ccc(-c4cccs4)nc23)c1`, 32.7 nM; under `CCN(CC)[C@@H](C)CNC(=O)c1cc(-c2cnn3ccc(-c4cccs4)nc23)nc(N2CC(C(C)(C)O)C2)c1`, 57.2 nM. Next, `CCN(CC)[C@@H](C)CNC(=O)c1cc(-c2cnn3ccc(-c4cccs4)nc23)nc(N2CC(C)(O)C2)c1`: 21.4 nM; `CCN(CC)[C@@H](C)CNC(=O)c1cc(NC(=O)C(C)C)nc(-c2cnn3ccc(-c4cccs4)nc23)c1`: 20.5 nM. Next, `CCN(CC)[C@@H](C)CNC(=O)c1cc(-c2cnn3ccc(-c4cccs4)nc23)nc(N2CCn3ccnc3C2)c1`: 121 nM. As for `CCN(CC)[C@@H](C)CNC(=O)c1cc(-c2cnn3ccc(-c4cccs4)nc23)nc(N2CCCS2(=O)=O)c1`, the response was half-maximal at 11.2 nM (EC50). `CCN(CC)[C@@H](C)CNC(=O)c1cc(-c2cnn3ccc(-c4cccs4)nc23)nc(N2CC(N(C)C)C2)c1`: the EC50 was determined as 168 nM. This EC50 lies about 15-fold higher than the previous one. Molecule `CCN(CC)[C@@H](C)CNC(=O)c1cc(-c2cnn3ccc(-c4cncnc4)nc23)nc(N2CC(OC)C2)c1` displayed an EC50 of 519 nM. Compared with the last molecule, the EC50 is about 3.1-fold higher. The molecule `COC1CN(c2cc(C(=O)NC[C@H](C)N)cc(-c3cnn4ccc(-c5ccccc5)nc34)n2)C1` had an EC50 of 122 nM. Molecule `CCN(CC)[C@@H](C)CNC(=O)c1cc(NC[C@H](C)O)nc(-c2cnn3ccc(-c4cccs4)nc23)c1` gave an EC50 of 27.1 nM. In the case of `CCN(CC)[C@@H](C)CNC(=O)c1cc(-c2cnn3ccc(-c4cccs4)nc23)nc(N2CC(NC(C)=O)C2)c1`, the EC50 is 28.4 nM.
